Literature values in patent US12611397B1, “Pharmaceutical composition of darolutamide” (ORION CORPORATION, priority 2019, dated 2026).

Q: With `CC(O)c1cc(C(=O)N[C@@H](C)Cn2ccc(-c3ccc(C#N)c(Cl)c3)n2)[nH]n1` (stereo partly drawn) [Darolutamide, N—((S)-1-(3-(3-chloro-4-cyanophenyl)-1H-pyrazol-1-yl)-propan-2-yl)-5-(1-hydroxyethyl)-1H-pyrazole-3-carboxamide] as the compound, how does the Solubility in water read?
A: poorly soluble in water
